The source of these data is BindingDB's records for doi:10.1016/s0960-894x(99)00552-1 (Smithkline Beecham Pharmaceuticals, 1999).

The structures appear in SMILES notation. Bounds are passed on as bounds.

The experiment in a line: Inhibitory activity against IgE receptor.

One may read the IC50 as the concentration at which inhibition is half-maximal. Read a high IC50 as weaker potency in that assay.

In the case of `CC(C)(C)[C@H](NC(=O)C(C[C@H]1CCc2ccccc2C1)[C@H](O)C(=O)NO)C(N)=O` (some centres not stated), the IC50 amounted to 70 nM. That is a double-digit nanomolar value.

In turn, `CC(C)(C)[C@H](NC(=O)C(C[C@@H]1CCc2ccccc2C1)[C@H](O)C(=O)NO)C(N)=O` (some centres not stated) returned an IC50 of 70 nM.

In turn, `CNC(=O)[C@H](Cc1ccccc1)NC(=O)[C@H](Cc1cc2cccc(OC)c2o1)[C@H](O)C(=O)NO` [(2R,3S)-2,N*1*-Dihydroxy-3-(7-methoxy-benzofuran-2-ylmethyl)-N*4*-((S)-1-methylcarbamoyl-2-phenyl-ethyl)-succinamide] returned an IC50 greater than 20000 nM.

As to `CNC(=O)[C@H](Cc1ccccc1)NC(=O)[C@H](Cc1ccc2ccccc2c1)[C@H](O)C(=O)NO` [(2R,3S)-2,N*1*-Dihydroxy-N*4*-((S)-1-methylcarbamoyl-2-phenyl-ethyl)-3-naphthalen-2-ylmethyl-succinamide], the IC50 stood at 400 nM.

For `NC(=O)[C@H](Cc1ccccc1)NC(=O)[C@H](Cc1ccc2ccc(OCc3ccccc3)cc2c1)[C@H](O)C(=O)NO` [(2R,3S)-2-(7-Benzyloxy-naphthalen-2-ylmethyl)-N*1*-((S)-1-carbamoyl-2-phenyl-ethyl)-3,N*4*-dihydroxy-succinamide], the IC50 was greater than 20000 nM.

The compound `NC(=O)[C@H](Cc1ccccc1)NC(=O)[C@H](Cc1cc2ccccc2s1)[C@H](O)C(=O)NO` [(2R,3S)-2-Benzo[b]thiophen-2-ylmethyl-N*1*-((S)-1-carbamoyl-2-phenyl-ethyl)-3,N*4*-dihydroxy-succinamide] had an IC50 of 20 nM.

Turning to `CNC(=O)[C@H](Cc1ccccc1)NC(=O)[C@H](Cc1csc2ccccc12)[C@H](O)C(=O)NO` [(2R,3S)-2-Benzo[b]thiophen-3-ylmethyl-3,N*4*-dihydroxy-N*1*-((S)-1-methylcarbamoyl-2-phenyl-ethyl)-succinamide], the IC50 is greater than 1000 nM.

In turn, `CNC(=O)[C@H](Cc1ccccc1)NC(=O)[C@H](Cc1cc2ccccc2o1)[C@H](O)C(=O)NO` [(2R,3S)-2-Benzofuran-2-ylmethyl-3,N*4*-dihydroxy-N*1*-((S)-1-methylcarbamoyl-2-phenyl-ethyl)-succinamide] gave an IC50 of 100 nM.

The compound `NC(=O)[C@H](Cc1ccccc1)NC(=O)[C@H](Cc1nc2ccccc2s1)[C@H](O)C(=O)NO` [(2R,3S)-2-Benzothiazol-2-ylmethyl-N*1*-((S)-1-carbamoyl-2-phenyl-ethyl)-3,N*4*-dihydroxy-succinamide] displayed an IC50 of 320 nM.

Consider `CC(C)(C)[C@H](NC(=O)[C@H](Cc1ccc2cc(F)c(F)cc2c1)[C@H](O)C(=O)NO)C(N)=O` [(2R,3S)-N*1*-((S)-1-Carbamoyl-2,2-dimethyl-propyl)-2-(6,7-difluoro-naphthalen-2-ylmethyl)-3,N*4*-dihydroxy-succinamide], for which the IC50 is greater than 1000 nM.

On to `CC(C)(C)[C@H](NC(=O)[C@H](Cc1ccc2ccc(F)cc2c1)[C@H](O)C(=O)NO)C(N)=O` [(2R,3S)-N*1*-((S)-1-Carbamoyl-2,2-dimethyl-propyl)-2-(7-fluoro-naphthalen-2-ylmethyl)-3,N*4*-dihydroxy-succinamide], for which the IC50 was 80 nM.

The compound `NC(=O)[C@H](Cc1ccccc1)NC(=O)[C@H](Cc1sc2ccccc2c1Cl)[C@H](O)C(=O)NO` [(2R,3S)-N*1*-((S)-1-Carbamoyl-2-phenyl-ethyl)-2-(3-chloro-benzo[b]thiophen-2-ylmethyl)-3,N*4*-dihydroxy-succinamide] came in with an IC50 greater than 10000 nM.

Compound `NC(=O)[C@H](Cc1ccccc1)NC(=O)[C@H](Cc1ccc2cc(F)ccc2c1)[C@H](O)C(=O)NO` [(2R,3S)-N*1*-((S)-1-Carbamoyl-2-phenyl-ethyl)-2-(6-fluoro-naphthalen-2-ylmethyl)-3,N*4*-dihydroxy-succinamide] returned an IC50 of 220 nM.

For the compound `NC(=O)[C@H](Cc1ccccc1)NC(=O)[C@H](Cc1ccc2ccc(F)cc2c1)[C@H](O)C(=O)NO` [(2R,3S)-N*1*-((S)-1-Carbamoyl-2-phenyl-ethyl)-2-(7-fluoro-naphthalen-2-ylmethyl)-3,N*4*-dihydroxy-succinamide], the IC50 was 100 nM.

With `CC(C)(C)[C@H](NC(=O)[C@H](Cc1ccc2ccccc2c1)[C@H](O)C(=O)NO)C(N)=O` [(2R,3S)-N*4*-((S)-1-Carbamoyl-2,2-dimethyl-propyl)-2,N*1*-dihydroxy-3-naphthalen-2-ylmethyl-succinamide], the IC50 was determined as 20 nM.

Compound `CC(C)(C)[C@H](NC(=O)[C@H](Cc1cnc2ccccc2c1)[C@H](O)C(=O)NO)C(N)=O` [(2R,3S)-N*4*-((S)-1-Carbamoyl-2,2-dimethyl-propyl)-2,N*1*-dihydroxy-3-quinolin-3-ylmethyl-succinamide] registered an IC50 of 20 nM.

In the case of `CC(C)(C)[C@H](NC(=O)[C@H](Cc1ccc2ncccc2c1)[C@H](O)C(=O)NO)C(N)=O` [(2R,3S)-N*4*-((S)-1-Carbamoyl-2,2-dimethyl-propyl)-2,N*1*-dihydroxy-3-quinolin-6-ylmethyl-succinamide], the concentration for half-maximal inhibition (IC50) was 1000 nM.

Turning to `NC(=O)[C@H](Cc1ccccc1)NC(=O)[C@H](Cc1ccc2ccc(O)cc2c1)[C@H](O)C(=O)NO` [(2R,3S)-N*4*-((S)-1-Carbamoyl-2-phenyl-ethyl)-2,N*1*-dihydroxy-3-(7-hydroxy-naphthalen-2-ylmethyl)-succinamide], the IC50 stood at 760 nM.

The compound `NC(=O)[C@H](Cc1ccccc1)NC(=O)[C@H](Cc1ccc2ccccc2c1)[C@H](O)C(=O)NO` [(2R,3S)-N*4*-((S)-1-Carbamoyl-2-phenyl-ethyl)-2,N*1*-dihydroxy-3-naphthalen-2-ylmethyl-succinamide] came in with an IC50 of 600 nM.

`CNC(=O)[C@@H](NC(=O)[C@H](Cc1ccc2c(c1)CCCC2)[C@H](O)C(=O)NO)C(C)(C)C` [(2R,3S)-N*4*-((S)-2,2-Dimethyl-1-methylcarbamoyl-propyl)-2,N*1*-dihydroxy-3-(5,6,7,8-tetrahydro-naphthalen-2-ylmethyl)-succinamide]: the IC50 is greater than 10000 nM.

In turn, `CNC(=O)[C@@H](NC(=O)[C@H](Cc1ccc2ccccc2c1)[C@H](O)C(=O)NO)C(C)(C)C` [(2R,3S)-N*4*-((S)-2,2-Dimethyl-1-methylcarbamoyl-propyl)-2,N*1*-dihydroxy-3-naphthalen-2-ylmethyl-succinamide] returned a 50% inhibitory concentration (IC50) of 230 nM.

`O=C(C[C@@H](Cc1ccc2ccccc2c1)C(=O)N[C@@H](Cc1ccccc1)C(=O)NCc1ccccc1)NO` [(R)-N*1*-((S)-1-Benzylcarbamoyl-2-phenyl-ethyl)-N*4*-hydroxy-2-naphthalen-2-ylmethyl-succinamide] displayed an IC50 of 1000 nM.
